Measured values: ChEMBL document CHEMBL1130965, “Inhibitors of farnesyl protein transferase. Synthesis and biological activity of amide and cyanoguanidine derivatives containing a 5,11-dihydro[1]benzthiepin, benzoxepin, and benzazepin [4,3-b]pyridine ring system” (Bioorg Med Chem Lett, 1998)

Assays:
[1] = target: T1, Protein farnesyltransferase (Homo sapiens, UniProt P49354+P49356); experiment: In vitro FPT potency by measuring the ability to inhibit the transfer of [3H]farnesyl from farnesyl pyrophosphate to H-Ras-CLVS.; type: protein-complex assay
[2] = target: T1, Protein farnesyltransferase; experiment: In vitro inhibition of Ras processing in COS cells; type: functional, cell-based
[3] = target: T1, Protein farnesyltransferase; experiment: In vitro inhibition of Ras processing by COS cells at 20 uM; type: functional, cell-based
[4] = target: T1, Protein farnesyltransferase; experiment: In vitro inhibition of [3H]farnesyl incorporation into H-Ras-CLVS by farnesyl transferase at 1.2 uM; type: protein-complex assay
[5] = target: T1, Protein farnesyltransferase; experiment: In vitro inhibition of [H]-farnesyl incorporation into H-Ras-CLVS by farnesyl transferase at 1.3 uM; type: protein-complex assay
[6] = target: T1, Protein farnesyltransferase; experiment: In vitro inhibition of [3H]farnesyl incorporation into H-Ras-CLVS by farnesyl transferase at 0.042 uM; type: protein-complex assay

| IC50 [1] | SMILES | further results |
| --- | --- | --- |
| 190 nM | O=C(Cc1ccncc1)N1CCC(=C2c3ccc(Cl)cc3SCc3cccnc32)CC1 | IC50 [2]: 4200 nM |
| 38 nM | N#CN/C(=N\Cc1ccc[n+]([O-])c1)N1CCC(=C2c3ccc(Cl)cc3SCc3cccnc32)CC1 | inhibition [3]: 26% |
| 920 nM | NC(=O)N1CCC(CC(=O)N2CCC(=C3c4ccc(Cl)cc4SCc4cccnc43)CC2)CC1 | IC50 [2]: 3800 nM |
| 620 nM | O=C(CSc1cc[n+]([O-])cc1)N1CCC(=C2c3ccc(Cl)cc3SCc3cccnc32)CC1 | IC50 [2]: 5000 nM |
| 590 nM | O=C(CC1CCNCC1)N1CCC(=C2c3ccc(Cl)cc3SCc3cccnc32)CC1 |  |
|  | O=C(Cc1cc[n+]([O-])cc1)N1CCC(=C2c3ccc(Cl)cc3S(=O)(=O)Cc3cccnc32)CC1 | inhibition [4]: 30% |
| 560 nM | O=C(Cc1ccncc1)N1CCC(=C2c3ccc(Cl)cc3S(=O)(=O)Cc3cccnc32)CC1 |  |
| 110 nM | O=C(Cc1cc[n+]([O-])cc1)N1CCC(=C2c3ccc(Cl)cc3OCc3cc(Br)cnc32)CC1 |  |
|  | CN1Cc2cccnc2C(N2CCN(C(=O)CC3CCNCC3)CC2)c2ccc(Cl)cc21 (stereo not given) | inhibition [5]: 10% |
|  | NC(=O)N1CCC(CC(=O)N2CCC(=C3c4ccc(Cl)cc4S(=O)(=O)Cc4cccnc43)CC2)CC1 | inhibition [4]: 35% |
| 140 nM | N#CN/C(=N\Cc1ccc[n+]([O-])c1)N1CCN(C2c3ccc(Cl)cc3SCc3cccnc32)CC1 (stereo not given) |  |
| 1520 nM | O=C(Cc1cc[n+]([O-])cc1)N1CCC(=C2c3ccc(Cl)cc3OCc3cccnc32)CC1 | inhibition [3]: 41% |
| 1790 nM | CN1CCC(CC(=O)N2CCC(=C3c4ccc(Cl)cc4SCc4cccnc43)CC2)CC1 |  |
| 61 nM | N#CN/C(=N\Cc1ccncc1)N1CCN(C2c3ccc(Cl)cc3SCc3cccnc32)CC1 (stereo not given) |  |
|  | O=C(CC1CCNCC1)N1CCC(=C2c3ccc(Cl)cc3S(=O)(=O)Cc3cccnc32)CC1 | inhibition [4]: 28% |
|  | N#CN/C(=N\Cc1ccncc1)N1CCC(=C2c3ccc(Cl)cc3OCc3cccnc32)CC1 | inhibition [6]: 25% |
| 140 nM | CN1Cc2cccnc2C(N2CCN(/C(=N/Cc3ccncc3)NC#N)CC2)c2ccc(Cl)cc21 (stereo not given) | inhibition [3]: 10% |
| 520 nM | O=C(Cc1cc[n+]([O-])cc1)N1CCC(=C2c3ccc(Cl)cc3SCc3cccnc32)CC1 | IC50 [2]: 10000 nM |
| 1100 nM | O=C(CC1CCNCC1)N1CCN(C2c3ccc(Cl)cc3SCc3cccnc32)CC1 (stereo not given) |  |
| 43 nM | N#CN=C(NCc1ccncc1)N1CCC(=C2c3ccc(Cl)cc3SCc3cccnc32)CC1 | IC50 [2]: 1700 nM |
| 1120 nM | NC(=O)N1CCC(CC(=O)N2CCN(C3c4ccc(Cl)cc4SCc4cccnc43)CC2)CC1 (stereo not given) |  |
| 2100 nM | CN1CCC(CC(=O)N2CCN(C3c4ccc(Cl)cc4SCc4cccnc43)CC2)CC1 (stereo not given) |  |

| SMILES | IC50 [1] | further results |
| --- | --- | --- |
| O=C(Cc1ccncc1)N1CCN(C2c3ccc(Cl)cc3S(=O)(=O)Cc3cccnc32)CC1 (stereo not given) | 1000 nM |  |
| CN1Cc2cccnc2C(N2CCN(C(=O)Cc3ccncc3)CC2)c2ccc(Cl)cc21 (stereo not given) | 840 nM | inhibition [3]: 0% |
| O=C(Cc1ccncc1)N1CCN(C2c3ccc(Cl)cc3SCc3cccnc32)CC1 (stereo in doubt; 40) | 1000 nM |  |
| O=C(Cc1cc[n+]([O-])cc1)N1CCN(C2c3ccc(Cl)cc3SCc3cccnc32)CC1 (stereo not given) | 79 nM | IC50 [2]: 10000 nM |
| O=C(Cc1ccncc1)N1CCN(C2c3ccc(Cl)cc3SCc3cccnc32)CC1 (stereo in doubt; 36) | 32 nM |  |
| CN1Cc2cccnc2C(N2CCN(C(=O)Cc3cc[n+]([O-])cc3)CC2)c2ccc(Cl)cc21 (stereo not given) | 2700 nM | IC50 [2]: 20000 nM |
| O=C(Cc1cc[n+]([O-])cc1)N1CCN(C2c3ccc(Cl)cc3S(=O)(=O)Cc3cccnc32)CC1 (stereo not given) | 3400 nM |  |
